Assay results reported in ChEMBL document CHEMBL1201862, “PubChem BioAssay data set” (2004).
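Growth conditions: 96-well plates. Treatment: test compound, 48 hours, 5 concentrations. Analysis: linear interpolation between bracketing concentrations; unreached endpoints set to highest concentration. The concentration for 50% growth inhibition is given as GI50.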 Active and inactive are the calls of the source. Cut-off read from the data, not from the text of the source: active = GI50 up to about 1.1 µM and inactive = higher.

Key:
Experiment in all cases: NCI-60 cell line screen, 48 h
786-0 = system: 786-0
A498 = system: A498
A549 = system: A549
ACHN = system: ACHN
BT-549 = system: BT-549
CAKI-1 = system: CAKI-1
CCRF-CEM = system: CCRF-CEM
COLO 205 = system: COLO 205
DU-145 = system: DU-145
HCC 2998 = system: HCC 2998
HCT-116 = system: HCT-116
HCT-15 = system: HCT-15
HOP-62 = system: HOP-62
HOP-92 = system: HOP-92
HT-29 = system: HT-29
Hs-578T = system: Hs-578T
IGROV-1 = system: IGROV-1
K562 = system: K562
KM12 = system: KM12
M14 = system: M14
MCF7 = system: MCF7
MDA-MB-231 = system: MDA-MB-231
MDA-MB-435 = system: MDA-MB-435
MDA-N = system: MDA-N
MOLT-4 = system: MOLT-4
Malme-3M = system: Malme-3M
NCI-H226 = system: NCI-H226
NCI-H23 = system: NCI-H23
NCI-H460 = system: NCI-H460
NCI-H522 = system: NCI-H522
NCI/ADR-RES = system: NCI/ADR-RES
OVCAR-3 = system: OVCAR-3
OVCAR-4 = system: OVCAR-4
OVCAR-5 = system: OVCAR-5
OVCAR-8 = system: OVCAR-8
PC-3 = system: PC-3
RPMI-8226 = system: RPMI-8226
RXF 393 = system: RXF 393
SF-268 = system: SF-268
SF-295 = system: SF-295
SF-539 = system: SF-539
SK-MEL-28 = system: SK-MEL-28
SK-MEL-2 = system: SK-MEL-2
SK-MEL-5 = system: SK-MEL-5
SK-OV-3 = system: SK-OV-3
SN12C = system: SN12C
SNB-75 = system: SNB-75
SR = system: SR
SW-620 = system: SW-620
T47D = system: T47D
TK-10 = system: TK-10
U-251 = system: U-251
UACC-257 = system: UACC-257
UACC-62 = system: UACC-62
UO-31 = system: UO-31
EKVX = system: EKVX
HL-60 = system: HL-60
LOX IMVI = system: LOX IMVI
SNB-19 = system: SNB-19

COc1ccc2c(c1)c1c(n2CCN2CCOCC2)-c2ccccc2CC1
GI50 (786-0): 37400 nM (inactive)
GI50 (A498): 32900 nM (inactive)
GI50 (A549): 30800 nM (inactive)
GI50 (ACHN): 38500 nM (inactive)
GI50 (BT-549): > 100000 nM (inactive)
GI50 (CAKI-1): > 100000 nM (inactive)
GI50 (CCRF-CEM): 27200 nM (inactive)
GI50 (COLO 205): 17100 nM (inactive)
GI50 (DU-145): 35700 nM (inactive)
GI50 (HCC 2998): 20700 nM (inactive)
GI50 (HCT-116): 33500 nM (inactive)
GI50 (HCT-15): 29900 nM
GI50 (HOP-62): 45400 nM (inactive)
GI50 (HOP-92): 46800 nM (inactive)
GI50 (HT-29): 36600 nM (inactive)
GI50 (Hs-578T): 18800 nM (inactive)
GI50 (IGROV-1): 37200 nM (inactive)
GI50 (K562): 15300 nM (inactive)
GI50 (KM12): 32800 nM (inactive)
GI50 (M14): 41400 nM (inactive)
GI50 (MCF7): 30800 nM (inactive)
GI50 (MDA-MB-231): 29400 nM (inactive)
GI50 (MDA-MB-435): 34000 nM (inactive)
GI50 (MDA-N): 32200 nM (inactive)
GI50 (MOLT-4): 17100 nM (inactive)
GI50 (Malme-3M): 32800 nM (inactive)
GI50 (NCI-H226): 21400 nM (inactive)
GI50 (NCI-H23): > 100000 nM (inactive)
GI50 (NCI-H460): 31900 nM (inactive)
GI50 (NCI-H522): 35400 nM (inactive)
GI50 (NCI/ADR-RES): 35500 nM (inactive)
GI50 (OVCAR-3): 44800 nM (inactive)
GI50 (OVCAR-4): 48400 nM (inactive)
GI50 (OVCAR-5): 71400 nM (inactive)
GI50 (OVCAR-8): 34200 nM (inactive)
GI50 (PC-3): 26100 nM (inactive)
GI50 (RPMI-8226): 22500 nM (inactive)
GI50 (RXF 393): 34000 nM (inactive)
GI50 (SF-268): 42300 nM (inactive)
GI50 (SF-295): 27900 nM (inactive)
GI50 (SF-539): 23100 nM (inactive)
GI50 (SK-MEL-28): 42400 nM (inactive)
GI50 (SK-MEL-2): 25400 nM (inactive)
GI50 (SK-MEL-5): 20700 nM (inactive)
GI50 (SK-OV-3): > 100000 nM (inactive)
GI50 (SN12C): 18800 nM (inactive)
GI50 (SNB-75): 39700 nM (inactive)
GI50 (SR): 18200 nM (inactive)
GI50 (SW-620): 32000 nM (inactive)
GI50 (T47D): 39500 nM (inactive)
GI50 (TK-10): 48100 nM (inactive)
GI50 (U-251): 29900 nM (inactive)
GI50 (UACC-257): 47100 nM (inactive)
GI50 (UACC-62): > 100000 nM (inactive)
GI50 (UO-31): > 100000 nM (inactive)

O[C@]12C=C(c3nccc4c3[nH]c3ccccc34)[C@@H]3CCN(CCCC/C=C\CC1)C[C@@]31CC3/C=C\CCCCN3[C@H]12 (stereo partly drawn)
GI50 (786-0): 130 nM (active)
GI50 (A498): 364 nM (active)
GI50 (A549): 360 nM (active)
GI50 (ACHN): 299 nM (active)
GI50 (BT-549): 804 nM (active)
GI50 (CAKI-1): 541 nM (active)
GI50 (CCRF-CEM): 740 nM (active)
GI50 (COLO 205): 344 nM (active)
GI50 (DU-145): 344 nM (active)
GI50 (EKVX): 441 nM (active)
GI50 (HCC 2998): 284 nM (active)
GI50 (HCT-116): 243 nM (active)
GI50 (HCT-15): 288 nM
GI50 (HL-60): 248 nM (active)
GI50 (HOP-62): 223 nM (active)
GI50 (HOP-92): 252 nM (active)
GI50 (HT-29): 119 nM (active)
GI50 (Hs-578T): 411 nM (active)
GI50 (IGROV-1): 112 nM (active)
GI50 (K562): 367 nM (active)
GI50 (KM12): 387 nM (active)
GI50 (LOX IMVI): 275 nM (active)
GI50 (M14): 371 nM (active)
GI50 (MCF7): 478 nM (active)
GI50 (MDA-MB-231): 484 nM (active)
GI50 (MDA-MB-435): 366 nM (active)
GI50 (MDA-N): 367 nM (active)
GI50 (MOLT-4): 138 nM (active)
GI50 (Malme-3M): 509 nM (active)
GI50 (NCI-H226): 582 nM (active)
GI50 (NCI-H23): 213 nM (active)
GI50 (NCI-H460): 191 nM (active)
GI50 (NCI-H522): 263 nM (active)
GI50 (NCI/ADR-RES): 514 nM (active)
GI50 (OVCAR-3): 302 nM (active)
GI50 (OVCAR-4): 454 nM (active)
GI50 (OVCAR-5): 405 nM (active)
GI50 (OVCAR-8): 331 nM (active)
GI50 (PC-3): 351 nM (active)
GI50 (RPMI-8226): 310 nM (active)
GI50 (SF-268): 533 nM (active)
GI50 (SF-295): 513 nM (active)
GI50 (SF-539): 530 nM (active)
GI50 (SK-MEL-28): 615 nM (active)
GI50 (SK-MEL-2): 244 nM (active)
GI50 (SK-MEL-5): 187 nM (active)
GI50 (SK-OV-3): 86.9 nM (active)
GI50 (SN12C): 440 nM (active)
GI50 (SNB-19): 1230 nM (inactive)
GI50 (SNB-75): 242 nM (active)
GI50 (SR): 311 nM (active)
GI50 (SW-620): 306 nM (active)
GI50 (T47D): 340 nM (active)
GI50 (TK-10): 378 nM (active)
GI50 (U-251): 355 nM (active)
GI50 (UACC-257): 652 nM (active)
GI50 (UACC-62): 73.3 nM (active)
GI50 (UO-31): 199 nM (active)
